Measurements from patent publication US20120141432A1, “USE OF CATALYTIC ANTIOXIDANT TO PRESERVE STEM CELL PHENOTYPE AND CONTROL CELL DIFFERENTIATION” (University of Pittsburgh- Of the Commonwealth System of …, priority 2010, published 2012).
“Also recorded” adds a separate entry of the source.

How the values were obtained:
Format in all cases: cell-based
[1] = tested on: human umbilical cord mesenchymal stem cells; assay: Osteogenic differentiation of umbilical cord mesenchymal stem cells (ALP staining); conditions: 34 μM, BMP4 0, 0.1 or 10 ng/mL, vs control with no antioxidant, FIG. 3
Method: The cells were contacted with the catalytic antioxidant at a concentration of 34 μM and bone morphogenic protein (BMP4) at concentrations of 0, 0.1, or 10 ng/mL.
Umbilical cord mesenchymal stem cells (UC-MSCs) were isolated and cultured. Cells were plated in the presence and absence of catalytic antioxidant. Live cell time-lapsed imaging was used to examine proliferation and apoptosis; images were analyzed using custom software obtained from Kairos Instruments. Osteogenic differentiation was stimulated using previously described methods; Alkaline Phosphatase (ALP) staining was used to determine stem cell differentiation (see Schugar et al., J Biomed Biotechnol 2009, 789526 (2009)). Cell phenotype was examined by flow cytometry (Schugar et al., J Biomed Biotechnol 2009, 789526 (2009)). Levels of intracellular reactive oxygen species were examined using dihydroxyrhodamine 123.

muscle stem cells [2] = assay: Myogenic differentiation of muscle stem cells (% of nuclei within myosin positive myotubes)
Method: (§1) FIGS. 2A and 2B are a set of bar graphs showing the effect of the catalytic antioxidant FBC-007 on the differentiation of muscle stem cells. The effect of FBC-007 at a concentration of 34 μM was measured on the myogenic differentiation of muscle stem cells. Differentiation was determined as the % of nuclei located within myosin positive myotubes and multinucleated myotubes.
In vitro Myogenic Differentiation: Cell populations from 3 different time points (<5 PDs, midpoint PDs, and maximal expansion) are evaluated. Briefly cells are plated at high density of 2000 cells/cm^2 in a low serum medium. After 3-4 days in culture, the media is changed to low serum or 2% serum medium. After day 7, immunocytochemical staining is performed to reveal fast myosin heavy chain (MyHC) expression. Methanol-fixed cultures are blocked with 5% HS and incubated with monoclonal mouse anti-MyHC (Sigma, 1:250, Sigma), biotinylated IgG (1:250, Vector), and streptavidin-Cy3 (1:500). […] In vitro differentiation efficiency is calculated as the ratio of myogenic nuclei to total nuclei.

muscle stem cells [3] = assay: Division time, cell growth and proliferation of muscle stem cells
Method: as §1
In Vitro Live Cell Imaging (LCI) to study Quiescent Nondividing cells. In vitro LCI is used to measure the fraction or proportion which is quiescent and nondividing after cytokine stimulation. The LCI system is unique in providing time-lapse images to characterize the cell populations. Using CytoTracker, DataCollector, and informatics tools, the growth rates of the populations are determined as described previously (Deasy et al., Stem Cells 20, 50-60 (2002)). In this way subpopulations or individual cells can be quantified. The combined the cell growth counts and the data of cell division time is used to calculate the size of the non-dividing fraction via a non-exponential Sherley equation (Sherley et al., Cell Prolif. 28, 137-44 (1995)).

stem cells = assay: Rescue from hydrogen peroxide-induced cell death
From the text: In other words, contacting stem cells with catalytic antioxidants allows the stem cells to proliferate (e.g. increase their numbers) without differentiating and losing the characteristics of stem cells, such as the phenotypic characteristics that distinguish stem cells from other cells. […] Thus, as disclosed herein contacting stem cells with catalytic antioxidants permits in vitro expansion of stem cells while delaying or inhibiting the differentiation of the stem cells, as well as protecting the stem cells from oxidative stress induced cell death.

muscle stem cells [4] = assay: ROS in muscle stem cells grown with FGF-2; conditions: cells grown with FGF-2 vs absence of FGF-2, FIG. 5C
From the text: FIGS. 5A-5D are bar graphs, a plot and an electronic image showing that oxidative stress decreases cell viability (FIG. 5A) and myogenic differentiation capacity (FIG. 5B). […] FIG. 5D is an electronic image of muscle cells showing that myosin (staining) declines as ROS increases.

human skMSC [5] = assay: Growth factor dose response of human skMSC by time-lapsed imaging; conditions: for number of muscle stem cells: after 3 days in 100 ng/mL, vs lower doses and unstimulated controls; for response of human skMSC to growth factor: time-lapsed imaging
human skMSC [6] = assay: BrdU pulse detection of nondividing cells; conditions: 3 days exposure, BrdU pulse 36 hours, P=0.01
Method: Nondividing cells were also detected within the human muscle cell population in the context of GF-dose-dependent studies. […] The cells were pulsed with BrdU for 36 hours (division time=19±4 hrs) immunostaining was performed to detect labeled and unlabeled cells.

muscle stem cells [7] = assay: Growth rate of muscle cells after CFSE labeling; conditions: 0 μM, 1 μM or 5 μM CFSE, FIG. 7B
Method: Cells were stained at 1.0 μM, and then analyzed at 0, 2, and 5 days. Note that the low fluorescence intensity approaches that of unstained cells by day 5. FIG. 7D is a plot of sample lineage trees showing the presence of dividing and non-dividing cells. FIG. 7E is a set of plots showing that 24 hours after injection into mdx mice, CFSE-labeled cells are detectable.
Both time-lapsed imaging and FACS sorting were applied to the quiescent population using used cytoplasmic tracking dyes, used 5-6-carboxyfluorescein diacetate, succinimdyl ester, CFSE, and a similar molecule, CMFDA. Once cell permeable CFDA-SE is taken up by cells, intracellular esterases in the cytoplasm cleave acetate groups and convert CFDA to fluorescent CFSE. It was first confirmed that CFSE is impermeable; it was not taken in by unlabeled neighboring cells when CFSE-positive cells die (FIG. 7A). An approach was developed to use CFSE as an effective method for labeling of muscle cells.

[8] = stem cell cultures, muscle stem cell and mesenchymal stem cells

In the case of `CC[n+]1ccccc1-c1c2nc(c(-c3cccc[n+]3CC)c3ccc([n-]3)c(-c3cccc[n+]3CC)c3nc(c(-c4cccc[n+]4CC)c4ccc1[n-]4)C=C3)C=C2.[Mn+3]` [FBC-007, Mn(III)tetrakis(N-ethylpyridinium-2-yl)porphyrin], the osteogenic differentiation [1] is reported as “reduced osteogenic differentiation”, the “myogenic differentiation (% of nuclei located within myosin positive myotubes and multinucleated myotubes)” value (muscle stem cells [2]; FBC-007 34 μM vs controls without antioxidant, FIG. 2A) is reported as “reduced levels of differentiation relative to controls” and the uninduced myogenic differentiation (muscle stem cells [2]; absence of growth factor (GF) stimulation, FIG. 6C) is reported as “prevents uninduced myogenic differentiation”. The “myogenic differentiation in stem cell cultures” value (muscle stem cells [2]; [8]) was “inhibits the myogenic differentiation”, the “division time of the muscle stem cells” value (muscle stem cells [3]; FBC-007 34 μM, FIG. 2B) was “does not show a statistically significant change” and the cell growth (muscle stem cells [3]; FIGS. 6A and 6B) was “did not affect cell growth; also recorded: does not affect cell growth”. For the same molecule, the “proliferation of the stem cells” value (muscle stem cells [3]; [8]) was “without affecting the proliferation” and the “hydrogen peroxide-induced cell death” value (stem cells) was “can rescue the stem cells”.

“FGF-2: FGF-2 (basic fibroblast growth factor, bFGF)” was tested, and the “reactive oxygen species (ROS)” value (muscle stem cells [4]) was “increase in some muscle stem cells”, the “number of muscle stem cells” value (human skMSC [5]) was “significantly more muscle stem cells” and the “response of human skMSC to growth factor” value (human skMSC [5]) was “dose-dependent response”.

For IGF-1: Insulin-like growth factor 1, the “number of muscle stem cells” value (human skMSC [5]) was “significantly more muscle stem cells”, the “response of human skMSC to growth factor” value (human skMSC [5]) was “dose-dependent response” and the “nondividing cells (BrdU [−])” value (human skMSC [6]) was “significantly fewer nondividing cells”.

With “carboxyfluorescein diacetate succinimidyl ester [CFSE]” the “growth rates after CFSE treatment” value (muscle stem cells [7]) was “does not affect growth rates”.
